Results from paper PMC11769294, “(E)-1-(3-(3-Hydroxy-4-Methoxyphenyl)-1-(3,4,5-Trimethoxyphenyl)allyl)-1H-1,2,4-Triazole and Related Compounds: Their Synthesis and Biological Evaluation as Novel Antimitotic Agents Targeting Breast Cancer” (Pharmaceuticals, 2025).
“And” between values parts separate entries of the source, which are not always exact repeats. Equal entries are not always repeated. Where two headings read alike, the source gives them in different places.

What was measured:
Format in all cases: cell-based, human
[1] = test system: MDA-MB-231/ATCC (Breast Cancer); experiment: NCI60 screen (SRB); conditions: 48 h; for growth percent: one dose 10 µM
[2] = test system: RXF 393 (Renal Cancer); experiment: NCI60 screen (SRB); conditions: 48 h; for growth percent: one dose 10 µM
[3] = test system: HT29 (Colon Cancer); experiment: NCI60 screen (SRB); conditions: 48 h; for growth percent: one dose 10 µM
[4] = test system: NCI 60 cancer cell line panel; experiment: NCI60 screen (SRB), all cell lines; conditions: for mean growth percent: over the 60-cell line panel, one dose 10 µM
[5] = test system: OVCAR-5 (Ovarian Cancer); experiment: NCI60 screen (SRB); conditions: 48 h; for growth percent: one dose 10 µM
[6] = test system: SNB-19 (CNS Cancer); experiment: NCI60 screen (SRB); conditions: 48 h; for growth percent: one dose 10 µM
[7] = test system: UACC-257 (Melanoma); experiment: NCI60 screen (SRB); conditions: 48 h; for growth percent: one dose 10 µM
[8] = test system: SK-MEL-2 (Melanoma); experiment: NCI60 screen (SRB); conditions: 48 h; for growth percent: one dose 10 µM
[9] = test system: A549/ATCC (Non-Small Cell Lung Cancer); experiment: NCI60 screen (SRB); conditions: 48 h; for growth percent: one dose 10 µM
[10] = test system: SK-MEL-5 (Melanoma); experiment: NCI60 screen (SRB); conditions: 48 h; for growth percent: one dose 10 µM
[11] = test system: IGROV1 (Ovarian Cancer); experiment: NCI60 screen (SRB); conditions: 48 h; for growth percent: one dose 10 µM
[12] = test system: CAKI-1 (Renal Cancer); experiment: NCI60 screen (SRB); conditions: 48 h; for growth percent: one dose 10 µM
[13] = test system: HOP-62 (Non-Small Cell Lung Cancer); experiment: NCI60 screen (SRB); conditions: 48 h; for growth percent: one dose 10 µM
[14] = test system: ACHN (Renal Cancer); experiment: NCI60 screen (SRB); conditions: 48 h; for growth percent: one dose 10 µM
[15] = test system: BT-549 (Breast Cancer); experiment: NCI60 screen (SRB); conditions: for growth percent: one dose 10 µM; for GI50: five-dose
[16] = test system: SN12C (Renal Cancer); experiment: NCI60 screen (SRB); conditions: 48 h; for growth percent: one dose 10 µM
[17] = test system: MALME-3M (Melanoma); experiment: NCI60 screen (SRB); conditions: 48 h; for growth percent: one dose 10 µM
[18] = test system: HL-60 (TB) (Leukemia); experiment: NCI60 screen (SRB); conditions: for growth percent: HL-60 (TB), one dose 10 µM; for GI50: HL-60(TB), five-dose
[19] = test system: 786-0 (Renal Cancer); experiment: NCI60 screen (SRB); conditions: 48 h; for growth percent: one dose 10 µM
[20] = test system: DU-145 (Prostate Cancer); experiment: NCI60 screen (SRB); conditions: 48 h; for growth percent: one dose 10 µM
[21] = test system: MDA-MB-468 (Breast Cancer); experiment: NCI60 screen (SRB); conditions: 48 h; for growth percent: one dose 10 µM
[22] = test system: HS 578T (Breast Cancer); experiment: NCI60 screen (SRB); conditions: 48 h; for growth percent: HS 578T, one dose 10 µM
[23] = Homo sapiens, five-dose, read-out: IC50 (cell marked * in GI50 column)
[24] = Homo sapiens, five-dose, read-out: IC50 (cell marked * in GI50 column) (converted)

Work on `COc1ccc(/C=C/C(c2cc(OC)c(OC)c(OC)c2)n2cncn2)cc1` (centres unmarked) [Compound 22a, (E)-1-(3-(4-Methoxyphenyl)-1-(3,4,5-trimethoxyphenyl)allyl)-1H-1,2,4-triazole] yielded a growth percent [1] of 50.05%, a growth percent [2] of 46.51% and a growth percent [3] of 4.96%. It also gave a mean growth percent ([4]; 48 h) of 41.9%, a growth percent [5] of 90.16% and a growth percent [6] of 49.01%. For the same compound, the growth percent [7] was 46.44%, the growth percent [8] was 12.89% and the growth percent [9] was 35.48%. The growth percent [10] was 33.03%, the growth percent [11] was 64.61% and the growth percent [12] was 51.61%. The growth percent [13] was 41.84%, the growth percent [14] was 57.45% and the growth percent ([15]; 48 h) was 45.45%. It also gave a growth percent [16] of 62.02%, a growth percent [17] of 61.34% and a growth percent ([18]; 48 h) of −17.94%. It also gave a growth percent [19] of 39.65%, a growth percent [20] of 61.25% and a growth percent [21] of 40.88%. For the same compound, the growth percent [22] was 51.18%.
`COc1ccc(/C=C/C(c2cc(OC)c(OC)c(OC)c2)n2cncn2)cc1O` (centres unmarked) [Compound 22b, (E)-5-(3-(1H-1,2,4-Triazol-1-yl)-3-(3,4,5-trimethoxyphenyl)prop-1-en-1-yl)-2-methoxyphenol] gave a GI50 ([1]; Homo sapiens, five-dose) of 3.02 µM, an IC50 [2, 23] of over 100 µM and a growth percent [2] of −16.94%. It also gave a GI50 ([3]; Homo sapiens, HT-29, five-dose) of 3.68 µM, a growth percent [3] of 41.01% and a GI50 ([4]; Homo sapiens, 48 h, five-dose, 48 h, read-out: MG-MID (mean of GI50 values over all cell lines)) of 0.371 µM. The GI50 ([4]; Homo sapiens, Figure 8, concentration in molar, read-out: Log 10 GI-50 Mean (converted)) was 2.14 µM, the IC50 ([4]; Homo sapiens, Figure 8, concentration in molar, read-out: Log 10 IC-50 Mean (converted)) was 2.88 µM and the LC50 (50% lethal concentration) ([4]; Homo sapiens, over all 60 cell lines, five-dose) was over 100 µM. The GI50 ([4]; five-dose, 48 h, read-out: MG-MID (mean of GI50 values over all cell lines)) was 0.371 µM, the “TGI (total growth inhibition)” value ([4]; over all 60 cell lines, five-dose) was 57.5 µM and the mean growth percent ([4]; 48 h) was 29.9%. The GI50 ([5]; Homo sapiens, five-dose) was 4.48 µM, the growth percent [5] was 86.55% and the IC50 [6, 24] was 25.7 µM. It also gave a growth percent [6] of 34.19%, a GI50 ([7]; Homo sapiens, five-dose) of over 100 µM and a growth percent [7] of 55.61%. The GI50 ([8]; Homo sapiens, five-dose) was 0.0438 µM, the growth percent [8] was 18.23% and the GI50 ([9]; Homo sapiens, five-dose) was 4.56 µM. It also gave a growth percent [9] of 40.13%, a GI50 ([10]; Homo sapiens, five-dose) of 0.0458 µM and a growth percent [10] of 23.87%. The GI50 ([11]; Homo sapiens, IGROV-1, five-dose) was 5.83 µM, the growth percent [11] was 50.48% and the GI50 ([12]; Homo sapiens, five-dose) was 2.83 µM. For the same compound, the growth percent [12] was 34.50%, the IC50 [13, 24] was 30.2 µM and the growth percent [13] was 22.52%. It also gave a GI50 ([14]; Homo sapiens, five-dose) of 0.0579 µM, a growth percent [14] of 63.11% and a GI50 ([15]; Homo sapiens, BT-549, 48 h) of 0.071 µM. For the same compound, the GI50 ([15]; 48 h) was 0.0712 µM, the growth percent ([15]; 48 h) was 36.59% and the GI50 ([16]; Homo sapiens, five-dose) was 7.19 µM. For the same compound, the growth percent [16] was 49.61%, the IC50 [17, 23] was over 100 µM and the growth percent [17] was 54.35%. For the same compound, the GI50 ([18]; 48 h) was 0.0245 µM, the growth percent ([18]; 48 h) was −36.28% and the GI50 ([18]; Homo sapiens, HL-60, 48 h) was 0.024 µM. For the same compound, the IC50 [19, 24] was 8.91 µM, the growth percent [19] was 23.33% and the IC50 [20, 24] was 6.61 µM. It also gave a growth percent [20] of 21.00%, an IC50 [21, 23] of over 100 µM and a growth percent [21] of 8.27%. For the same compound, the growth percent [22] was 28.47% and the IC50 ([22]; Homo sapiens, Hs-578T, read-out: IC50 (cell marked * in GI50 column)) was over 100 µM.
For `COc1ccc(/C=C/C(c2cc(OC)c(OC)c(OC)c2)n2ccnc2)cc1O` (centres unmarked) [Compound 23b, (E)-5-(3-(1H-Imidazol-1-yl)-3-(3,4,5-trimethoxyphenyl)prop-1-en-1-yl)-2-methoxyphenol], the growth percent [1] was 53.0% and 52.97%, the growth percent [2] was 33.07% and the growth percent [3] was 70.97%. For the same compound, the mean growth percent ([4]; 48 h) was 39.7%, the growth percent [5] was 102.8% and the growth percent [6] was 47.27%. It also gave a growth percent [7] of 34.19%, a growth percent [8] of 41.65% and a growth percent [9] of 29.07%. The growth percent [10] was 16.98%, the growth percent [11] was 55.74% and the growth percent [12] was 60.21%. For the same compound, the growth percent [13] was 47.25%, the growth percent [14] was 46.34% and the growth percent ([15]; 48 h) was 44.34%. It also gave a growth percent [16] of 57.15%, a growth percent [17] of 57.72% and a growth percent ([18]; 48 h) of −36.59%. The growth percent [19] was 34.04%, the growth percent [20] was 37.76% and the growth percent [21] was 40.60%. For the same compound, the growth percent [22] was 32.05%.
`COc1ccc(C2CC(n3ccnc3)c3cc(OC)c(OC)c(OC)c32)cc1O` (centres unmarked) [Compound 27a, 5-(3-(1H-Imidazol-1-yl)-5,6,7-trimethoxy-2,3-dihydro-1H-inden-1-yl)-2-methoxyphenol] showed a growth percent [1] of 81.01%, a growth percent [2] of 70.77% and a growth percent [3] of 101.76%. The mean growth percent ([4]; 48 h) was 79.2%, the growth percent [5] was 106.81% and the growth percent [6] was 93.73%. It also gave a growth percent [7] of 58.46%, a growth percent [8] of 89.63% and a growth percent [9] of 55.83%. The growth percent [10] was 53.15%, the growth percent [11] was 82.43% and the growth percent [12] was 74.50%. The growth percent [13] was 80.77%, the growth percent [14] was 86.36% and the growth percent ([15]; 48 h) was 90.36%. For the same compound, the growth percent [16] was 104.36%, the growth percent [17] was 73.18% and the growth percent ([18]; 48 h) was 83.57%. For the same compound, the growth percent [19] was 91.67%, the growth percent [20] was 102.37% and the growth percent [21] was 78.64%. The growth percent [22] was 85.38%.
With `COc1cc(/C=C/C(/C=C/c2cc(OC)c(OC)c(OC)c2)n2ccnc2)cc(OC)c1OC` [Compound 30, 1-((1E,4E)-1,5-bis(3,4,5-trimethoxyphenyl)penta-1,4-dien-3-yl)-1H-imidazole] the growth percent [1] was 76.21%, the growth percent [2] was 88.15% and the growth percent [3] was 80.30%. The mean growth percent ([4]; 48 h) was 81.3%, the growth percent [5] was 129.83% and the growth percent [6] was 89.08%. For the same compound, the growth percent [7] was 75.61%, the growth percent [8] was 81.02% and the growth percent [9] was 78.93%. For the same compound, the growth percent [10] was 62.09%, the growth percent [11] was 78.02% and the growth percent [13] was 84.91%. For the same compound, the growth percent [14] was 99.92%, the growth percent ([15]; 48 h) was 83.42% and the growth percent [16] was 84.52%. It also gave a growth percent [17] of 93.80%, a growth percent ([18]; 48 h) of 70.60% and a growth percent [19] of 95.20%. The growth percent [20] was 100.17%, the growth percent [21] was 57.22% and the growth percent [22] was 77.21%.
